According to PubChem BioAssay (NCI):
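Step 1: Grow cells in 96-well plates. Step 2: Expose to compound for 48 hours at 5 concentrations. Step 3: Interpolate endpoints linearly; if unreached, use highest concentration. Here, GI50 denotes the concentration required for 50% inhibition of growth. The concentration for full growth arrest is given as TGI.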

Tests used:
Test in all cases: growth of human tumour cells (NCI), 48 h
[1] = test system: OVCAR-5 ovarian
[2] = test system: SN12C renal
[3] = test system: TK-10 renal
[4] = test system: KM12 colon
[5] = test system: ACHN renal
[6] = test system: HOP-62 NSCLC
[7] = test system: SNB-19 CNS
[8] = test system: U251 CNS

SMILES | GI50 [1] [µM] | TGI [1] [µM] | GI50 [2] [µM] | TGI [2] [µM] | GI50 [3] [µM] | TGI [3] [µM] | GI50 [4] [µM] | TGI [4] [µM] | GI50 [5] [µM] | TGI [5] [µM] | GI50 [6] [µM] | TGI [6] [µM] | GI50 [7] [µM] | TGI [7] [µM] | GI50 [8] [µM] | TGI [8] [µM]
C/C(=C\CCc1ccoc1)CC/C=C(\C)CCCC1=CC(=O)OC1 | 12.5 | 68.9 | 11.2 | 39.6 | 16.9 | 63.9 | 8.44 | 23.7 | 12.6 | > 100 | 16 | 55 | 17.7 | > 100 | – | –
C/C1=C\CC[C@@]2(C)O[C@@H]2[C@H]2OC(=O)[C@@H](CN(C)C)[C@@H]2CC1 | 18.6 | 37.1 | 12.8 | 32.4 | 3.09 | 7.7 | 11.8 | 29.1 | 15.6 | 31.6 | 20.9 | 40.4 | 27.9 | 63 | 14.9 | 34.4
CC/C(=C(/c1ccc(OCCN(C)C)cc1)c1ccc(OC(=O)CCCCC(=O)c2c(C)[nH]c(/C=C3\N=C(c4ccc[nH]4)C=C3OC)c2C)cc1)c1ccccc1 | 10.6 | 22.5 | 5.39 | 21.4 | 12.8 | 25.4 | 3.75 | 14.3 | 4.84 | 22.8 | 12.3 | 24.7 | 12.8 | 27.4 | 5.22 | 18.3
C=C(C)[C@@]12OC3(/C=C/C=C/CCCCC)O[C@@H]1[C@@H]1[C@@H]4O[C@]4(CO)[C@@H](O)[C@]4(O)C(=O)C(C)=C[C@H]4[C@@]1(O3)[C@H](C)[C@H]2OC(=O)c1ccccc1 | 4.43 | 8.62 | 1.49 | 2.83 | < 0.0106 | 2.17 | 1.61 | 2.99 | 1.16 | 4.43 | < 0.01 | 4.84 | 1.92 | 3.91 | 1.24 | 2.48
CCOC(=O)/C=C/C(C(=O)/C=C/c1ccc(OC2CCCCO2)c(OC)c1)=C(O)\C=C\c1ccc(OC2CCCCO2)c(OC)c1 (stereo not drawn) | 7.81 | 74.5 | 2.16 | 4.96 | 2.84 | 9.21 | 4.75 | 19 | 3.61 | 12.5 | 6.09 | 32.5 | 5.32 | 25.2 | 3.36 | 12.6
Cc1c2cccnc2c(C)c2c1c1cc(CO)ccc1n2C | 0.618 | 8.78 | 2.08 | 40.3 | 2.57 | 7.77 | 2.33 | 17 | 0.937 | 6.89 | 1.31 | 6.52 | 2.67 | 14.6 | 1.93 | 11
O=C(c1ccccc1)c1cc(Cl)ccc1OCCCCN1CCN(CCCCOc2ccc(Cl)cc2C(=O)c2ccccc2)CC1 | 17.9 | 48.1 | 4.48 | 18 | 4.26 | 17 | 2.09 | 4.55 | 4.64 | 16.1 | 3.82 | 13.6 | 10 | 22.8 | 2.03 | 4.14
C[As](C)SC1OC(CO)C(O)C1O (stereo not drawn) | 0.864 | 5.33 | 0.312 | 1.52 | 0.174 | 0.816 | 2.4 | 13.6 | 0.257 | 1.03 | 3.58 | 13.4 | 8.68 | > 57.6 | 0.709 | 3.2
CC(=O)OC1Oc2ccccc2-c2oc(=O)c(-c3cc(=O)oc4cc(O)ccc34)cc21 (stereo not drawn) | 26.6 | 57.2 | 30.9 | > 100 | 32.6 | > 100 | 19.8 | 46.4 | 23.1 | 79.2 | 20.8 | 55.2 | 26.6 | > 100 | 24 | 65.3
C=C(C=O)C1CCC2(C(=O)O)CCC3(C)C(CCC4C5(C)CCC(O)C(C)(C)C5CCC43C)C12 (stereo not drawn) | 2.99 | 6.82 | 4.09 | > 89.9 | 4.04 | 18.1 | 1.61 | 3.39 | 1.69 | 3.23 | 4.93 | 19.7 | 8.18 | 20.8 | 1.64 | 3.74
NC(=NCCCOc1ccc(Cl)cc1)Nc1ccc(C(F)(F)F)cc1 | 2.67 | 13.7 | 3.07 | 14.2 | 1.73 | 3.66 | – | – | 2.27 | 7.03 | 2.28 | 6.43 | 2.79 | 19.5 | 1.71 | 3.89
Ic1ccc(Nc2nc3nonc3nc2Nc2ccc(I)cc2)cc1 | 0.387 | > 100 | – | – | 0.321 | > 100 | 0.293 | > 100 | 0.269 | > 100 | 0.302 | 0.961 | 0.324 | > 100 | 0.324 | > 100
COC(=O)c1cc2c(cc1O)[C@@H](NC(C)=O)CCc1cc(OC)c(OC)c(OC)c1-2 | – | – | 0.0408 | > 100 | – | – | < 0.01 | – | 0.0459 | > 100 | – | – | 0.0355 | > 100 | 0.0402 | 1.17
Clc1ccc2c(NCCCNc3nccc(Nc4ccc(Br)cc4)n3)ccnc2c1 | 1.63 | 3.18 | 1.69 | 3.37 | 1.83 | 3.26 | 1.82 | 3.36 | 1.66 | 3.2 | – | – | 1.75 | 3.32 | 1.52 | 2.94
CC(C)=C[C@@H]1C[C@H](C)[C@H]2CC[C@H](C)C3=C2[C@](O)(OC3=O)[C@]1(C)O | > 100 | > 100 | > 100 | > 100 | > 100 | > 100 | > 100 | > 100 | > 100 | > 100 | – | – | > 100 | > 100 | > 100 | > 100
